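Protocol summary: plate cells (96-well), add compound at 5 concentrations, incubate 48 h, interpolate endpoints linearly. TGI denotes the concentration required for complete inhibition of growth.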
Assays:
Experiment in all cases: growth of human tumour cells (NCI), 48 h
[1] = system: 786-0 renal
[2] = system: A498 renal
[3] = system: A549 NSCLC
[4] = system: CAKI-1 renal
[5] = system: CCRF-CEM leukemia
[6] = system: COLO 205 colon
[7] = system: DU-145 prostate
[8] = system: EKVX NSCLC
[9] = system: HCC-2998 colon
[10] = system: HCT-116 colon
[11] = system: HL-60(TB) leukemia
[12] = system: HOP-62 NSCLC
[13] = system: HS 578T breast
[14] = system: HT29 colon
[15] = system: IGROV1 ovarian
[16] = system: K-562 leukemia
[17] = system: M14 melanoma
[18] = system: MALME-3M melanoma
[19] = system: MCF7 breast
[20] = system: MDA-MB-231 breast
[21] = system: MDA-MB-435
[22] = system: MDA-N
[23] = system: MOLT-4 leukemia
[24] = system: NCI-H226 lung
[25] = system: NCI-H23 lung
[26] = system: NCI-H522 lung
[27] = system: NCI/ADR-RES ovarian
[28] = system: OVCAR-3 ovarian
[29] = system: OVCAR-5 ovarian
[30] = system: OVCAR-8 ovarian
[31] = system: PC-3 prostate
[32] = system: RXF 393 renal
[33] = system: SF-268 CNS
[34] = system: SF-295 CNS
[35] = system: SF-539 CNS
[36] = system: SK-MEL-2 melanoma
[37] = system: SK-MEL-5 melanoma
[38] = system: SK-OV-3 ovarian
[39] = system: SN12C renal
[40] = system: SR leukemia
[41] = system: T-47D breast
[42] = system: TK-10 renal
[43] = system: U251 CNS
[44] = system: UACC-257 melanoma
[45] = system: ACHN renal
[46] = system: BT-549 breast
[47] = system: KM12 colon
[48] = system: NCI-H460 lung
[49] = system: RPMI-8226 leukemia
[50] = system: SK-MEL-28 melanoma
[51] = system: SNB-19 CNS
[52] = system: SNB-75 CNS
[53] = system: SW-620 colon
[54] = system: UACC-62 melanoma
[55] = system: UO-31 renal
[56] = system: HCT-15 colon
[57] = system: OVCAR-4 ovarian
[58] = system: LOX IMVI melanoma

In the case of `CC1(C)Oc2ccc3c(=O)cc(-c4cccs4)oc3c2C1C(=O)O` (centres undefined), the TGI [1] is reported as greater than 100 µM, the TGI [2] is reported as greater than 100 µM and the TGI [3] is reported as greater than 100 µM. It also gave a TGI [4] of 60.4 µM, a TGI [5] greater than 100 µM and a TGI [6] greater than 100 µM. For the same molecule, the TGI [7] was greater than 100 µM, the TGI [8] was greater than 100 µM and the TGI [9] was greater than 100 µM. For the same molecule, the TGI [10] was greater than 100 µM, the TGI [11] was greater than 100 µM and the TGI [12] was greater than 100 µM. It also gave a TGI [13] greater than 100 µM, a TGI [14] greater than 100 µM and a TGI [15] greater than 100 µM. It also gave a TGI [16] greater than 100 µM, a TGI [17] greater than 100 µM and a TGI [18] greater than 100 µM. The TGI [19] was greater than 100 µM, the TGI [20] was greater than 100 µM and the TGI [21] was greater than 100 µM. The TGI [22] was greater than 100 µM, the TGI [23] was greater than 100 µM and the TGI [24] was greater than 100 µM. It also gave a TGI [25] greater than 100 µM, a TGI [26] greater than 100 µM and a TGI [27] greater than 100 µM. The TGI [28] was greater than 100 µM, the TGI [29] was greater than 100 µM and the TGI [30] was greater than 100 µM. For the same molecule, the TGI [31] was greater than 100 µM, the TGI [32] was greater than 100 µM and the TGI [33] was greater than 100 µM. It also gave a TGI [34] greater than 100 µM, a TGI [35] greater than 100 µM and a TGI [36] greater than 100 µM. For the same molecule, the TGI [37] was greater than 100 µM, the TGI [38] was greater than 100 µM and the TGI [39] was greater than 100 µM. The TGI [40] was greater than 100 µM, the TGI [41] was greater than 100 µM and the TGI [42] was greater than 100 µM. It also gave a TGI [43] greater than 100 µM and a TGI [44] greater than 100 µM.
`O=C1CCCCC/C1=C\c1cccc([N+](=O)[O-])c1` gave a TGI [1] greater than 100 µM, a TGI [2] greater than 100 µM and a TGI [3] greater than 100 µM. The TGI [45] was greater than 100 µM, the TGI [46] was 72.8 µM and the TGI [4] was greater than 100 µM. The TGI [5] was 44.2 µM, the TGI [6] was greater than 100 µM and the TGI [7] was greater than 100 µM. For the same molecule, the TGI [8] was greater than 100 µM, the TGI [9] was 44 µM and the TGI [10] was 53 µM. It also gave a TGI [11] of 57 µM, a TGI [12] greater than 100 µM and a TGI [14] greater than 100 µM. The TGI [15] was 50.4 µM, the TGI [16] was greater than 100 µM and the TGI [47] was 56.1 µM. For the same molecule, the TGI [17] was greater than 100 µM, the TGI [18] was 72.4 µM and the TGI [19] was greater than 100 µM. It also gave a TGI [20] of 56.4 µM, a TGI [21] greater than 100 µM and a TGI [22] greater than 100 µM. For the same molecule, the TGI [23] was 83.5 µM, the TGI [48] was 67.9 µM and the TGI [27] was 95.5 µM. For the same molecule, the TGI [28] was greater than 100 µM, the TGI [29] was greater than 100 µM and the TGI [30] was greater than 100 µM. It also gave a TGI [31] greater than 100 µM, a TGI [49] of 78.1 µM and a TGI [32] of 93.1 µM. The TGI [33] was 40.6 µM, the TGI [34] was 50.4 µM and the TGI [35] was 48.7 µM. For the same molecule, the TGI [36] was greater than 100 µM, the TGI [50] was greater than 100 µM and the TGI [37] was 40.4 µM. For the same molecule, the TGI [38] was greater than 100 µM, the TGI [39] was greater than 100 µM and the TGI [51] was greater than 100 µM. It also gave a TGI [52] greater than 100 µM, a TGI [40] of 39.9 µM and a TGI [53] greater than 100 µM. For the same molecule, the TGI [41] was greater than 100 µM, the TGI [42] was 97.2 µM and the TGI [43] was greater than 100 µM. The TGI [44] was 54.8 µM, the TGI [54] was 67.6 µM and the TGI [55] was 80.1 µM.
Molecule `Cc1ccc2n(c1)cc(-c1ccc(/C=N/NC(=N)N/N=C/c3ccc(-c4cn5cc(C)ccc5[n+]4C)cc3)cc1)[n+]2C` has a TGI [1] greater than 100 µM, a TGI [3] greater than 100 µM and a TGI [45] greater than 100 µM. It also gave a TGI [5] greater than 100 µM, a TGI [6] greater than 100 µM and a TGI [8] greater than 100 µM. The TGI [9] was greater than 100 µM, the TGI [10] was greater than 100 µM and the TGI [56] was greater than 100 µM. The TGI [11] was greater than 100 µM, the TGI [12] was greater than 100 µM and the TGI [13] was greater than 100 µM. For the same molecule, the TGI [14] was greater than 100 µM, the TGI [15] was greater than 100 µM and the TGI [47] was greater than 100 µM. For the same molecule, the TGI [17] was greater than 100 µM, the TGI [19] was greater than 100 µM and the TGI [20] was greater than 100 µM. It also gave a TGI [21] greater than 100 µM, a TGI [22] greater than 100 µM and a TGI [23] greater than 100 µM. The TGI [48] was greater than 100 µM, the TGI [26] was greater than 100 µM and the TGI [27] was greater than 100 µM. It also gave a TGI [57] greater than 100 µM, a TGI [29] greater than 100 µM and a TGI [30] greater than 100 µM. For the same molecule, the TGI [31] was greater than 100 µM, the TGI [49] was greater than 100 µM and the TGI [33] was 43.8 µM. It also gave a TGI [34] greater than 100 µM, a TGI [35] greater than 100 µM and a TGI [50] of 33.6 µM. The TGI [37] was greater than 100 µM, the TGI [38] was greater than 100 µM and the TGI [39] was greater than 100 µM. It also gave a TGI [51] greater than 100 µM, a TGI [52] of 35.2 µM and a TGI [40] greater than 100 µM. The TGI [53] was greater than 100 µM, the TGI [41] was greater than 100 µM and the TGI [42] was greater than 100 µM. It also gave a TGI [43] greater than 100 µM, a TGI [44] greater than 100 µM and a TGI [55] of 44.1 µM.
With `O=c1c(Nc2ccccc2)cn(CCOc2ccc(Cl)cc2)c(=O)n1CCOc1ccc(Cl)cc1` the TGI [1] was greater than 100 µM, the TGI [2] was greater than 100 µM and the TGI [3] was greater than 100 µM. It also gave a TGI [45] greater than 100 µM, a TGI [4] greater than 100 µM and a TGI [5] greater than 100 µM. For the same molecule, the TGI [6] was greater than 100 µM, the TGI [7] was greater than 100 µM and the TGI [8] was greater than 100 µM. For the same molecule, the TGI [9] was greater than 100 µM, the TGI [10] was greater than 100 µM and the TGI [56] was greater than 100 µM. The TGI [13] was greater than 100 µM, the TGI [15] was greater than 100 µM and the TGI [16] was greater than 100 µM. The TGI [47] was greater than 100 µM, the TGI [58] was greater than 100 µM and the TGI [17] was greater than 100 µM. The TGI [21] was greater than 100 µM, the TGI [22] was greater than 100 µM and the TGI [23] was greater than 100 µM. For the same molecule, the TGI [25] was greater than 100 µM, the TGI [48] was greater than 100 µM and the TGI [57] was greater than 100 µM. The TGI [31] was greater than 100 µM, the TGI [49] was greater than 100 µM and the TGI [32] was greater than 100 µM. For the same molecule, the TGI [33] was greater than 100 µM, the TGI [34] was greater than 100 µM and the TGI [50] was greater than 100 µM. It also gave a TGI [37] greater than 100 µM, a TGI [39] greater than 100 µM and a TGI [51] greater than 100 µM. For the same molecule, the TGI [40] was greater than 100 µM, the TGI [53] was greater than 100 µM and the TGI [43] was greater than 100 µM. For the same molecule, the TGI [44] was greater than 100 µM, the TGI [54] was greater than 100 µM and the TGI [55] was greater than 100 µM.

From PubChem BioAssay (NCI)
